Test systems include CCRF-CEM leukemia; SF-295 CNS; SK-MEL-2 melanoma; U251 CNS; SF-539 CNS; SNB-75 CNS; MDA-MB-231 breast; HT29 colon; OVCAR-3 ovarian; COLO 205 colon.
Assay in all cases: inhibition of tumour cell growth, NCI panel, 48 h

Among the data in PubChem BioAssay (NCI) are GI50 and TGI values, retold here.

SMILES strings stand for the structures.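 Tested at 5 concentrations; 48 h exposure; 96-well plates; endpoints linearly interpolated, else capped at highest concentration. At the GI50, growth is halved. TGI marks complete inhibition of growth.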

Take `CC1(C)N=C(N)N=C(N)N1c1ccc(CCC(=O)Nc2ccc(S(=O)(=O)F)cc2)c(Cl)c1`: the GI50 is 0.522 µM in the test on CCRF-CEM leukemia; 1.09 µM with SF-295 CNS; 36.1 µM in the test with SK-MEL-2 melanoma; 0.498 µM in the test with U251 CNS; 0.509 µM with SF-539 CNS; 9.75 µM in the test with SNB-75 CNS. For the same molecule, the GI50 in the test on MDA-MB-231 breast is greater than 64.9 µM; with HT29 colon, 0.15 µM; in the test with OVCAR-3 ovarian, 9.86 µM; in the test on COLO 205 colon it was 2.52 µM. Moreover, the TGI in the test with CCRF-CEM leukemia is greater than 100 µM; in the test with SF-295 CNS, greater than 100 µM; in the test with SK-MEL-2 melanoma, greater than 100 µM; with U251 CNS, greater than 100 µM; in the test with SF-539 CNS, greater than 38.7 µM; in the test on SNB-75 CNS, greater than 100 µM. The TGI in the test on MDA-MB-231 breast, in the test on HT29 colon, in the test with OVCAR-3 ovarian and in the test with COLO 205 colon was greater than 100 µM in each case.

For the molecule `CC(C)C(O)(C(C)C)C(C)C`, the TGI with CCRF-CEM leukemia, in the test with SF-295 CNS, in the test on SK-MEL-2 melanoma, in the test on U251 CNS, in the test on SF-539 CNS and with SNB-75 CNS was greater than 100 µM in each case. The TGI in the test on MDA-MB-231 breast, with HT29 colon, in the test on OVCAR-3 ovarian and in the test on COLO 205 colon was greater than 100 µM in each case.

Regarding `O=C(/C=C/c1ccccc1)Nc1ncc(Cc2ccccc2Cl)s1`, the GI50 was 0.36 µM with CCRF-CEM leukemia; 0.282 µM with SF-295 CNS; 1.25 µM in the test on SK-MEL-2 melanoma; 0.397 µM with U251 CNS; 0.223 µM in the test with SF-539 CNS; 0.219 µM in the test with SNB-75 CNS. Further, the GI50 in the test on MDA-MB-231 breast is 0.668 µM; in the test with HT29 colon it was 0.331 µM; in the test on OVCAR-3 ovarian it was 0.226 µM; in the test on COLO 205 colon it was 0.366 µM. In addition, the TGI is greater than 100 µM with CCRF-CEM leukemia; 11.7 µM in the test on SF-295 CNS; greater than 100 µM in the test with SK-MEL-2 melanoma; greater than 100 µM with U251 CNS; 0.634 µM with SF-539 CNS; 2.16 µM with SNB-75 CNS. Further, the TGI in the test on MDA-MB-231 breast was greater than 100 µM; in the test on HT29 colon, greater than 100 µM; with OVCAR-3 ovarian, 0.63 µM; with COLO 205 colon, greater than 100 µM.

Consider `CC/C=C\C[C@H]1CC=C2C(=O)C=C[C@@H]2CC=CCCCC(=O)O[C@@H](CCCCC)CC=C2C(=O)C=C[C@@H]2CC=CCCCC(=O)O[C@@H](CCCCC)CC=C2C(=O)C=C[C@@H]2CC=CCCCC(=O)O[C@@H](CCCCC)CC=C2C(=O)C=C[C@@H]2CC=CCCCC(=O)O1`, for which the GI50 in the test with CCRF-CEM leukemia is 1.65 µM; in the test on SF-295 CNS it was 2.02 µM; in the test with SK-MEL-2 melanoma, 2.21 µM; in the test with U251 CNS it was 1.45 µM; with SF-539 CNS, 2.22 µM; in the test with SNB-75 CNS it was 3.8 µM. In addition, the GI50 is 1.91 µM in the test on MDA-MB-231 breast, 2.86 µM in the test with HT29 colon, 1.66 µM in the test on OVCAR-3 ovarian and 1.64 µM in the test on COLO 205 colon. Further, the TGI in the test with CCRF-CEM leukemia is greater than 7.9 µM; with SF-295 CNS, 6.32 µM; with SK-MEL-2 melanoma it was 5.38 µM; in the test on U251 CNS it was 3.13 µM; with SF-539 CNS, greater than 7.9 µM; with SNB-75 CNS, greater than 7.9 µM. Besides, the TGI with MDA-MB-231 breast came out at 4.99 µM; with HT29 colon, 6.93 µM; with OVCAR-3 ovarian, 4.01 µM; in the test with COLO 205 colon, 3.6 µM.
